Test [1] has as its target T1, HPK1 protein (Homo sapiens, UniProt Q92918).
T1 construct: purchased Signal Chem M23-11G-10
T1 sequence (Q92918 1-346 limits assumed): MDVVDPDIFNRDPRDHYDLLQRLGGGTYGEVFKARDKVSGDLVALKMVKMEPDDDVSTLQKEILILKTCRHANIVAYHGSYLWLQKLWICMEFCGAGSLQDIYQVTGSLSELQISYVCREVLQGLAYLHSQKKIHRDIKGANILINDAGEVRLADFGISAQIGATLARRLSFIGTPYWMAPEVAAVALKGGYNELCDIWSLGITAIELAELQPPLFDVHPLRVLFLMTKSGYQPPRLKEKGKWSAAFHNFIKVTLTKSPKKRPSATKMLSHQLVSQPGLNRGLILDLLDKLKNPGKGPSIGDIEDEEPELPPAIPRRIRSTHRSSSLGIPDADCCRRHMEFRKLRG
As to the kind of experiment: HPK1 enzyme inhibition assay (ADP-Glo). Conditions: MBP substrate, ATP, ADP-Glo readout. Format: biochemical. An outline of the steps: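 Recombinant human HPK1 preincubated with compound 60 min at 25 °C, then reaction with MBP (0.2 ug/ul, 2× stock) and ATP (20 μM, 2× stock) 60 min at 25 °C. ADP formed detected by ADP-Glo after ATP depletion and conversion to ATP; IC50 calculated from signal.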

For the next test, the system named is HPK1 p-SLP-76. Nature of the test: HPK1 p-SLP-76 inhibition assay in human PBMC (HTRF). In kind it is cell-based. Conditions: 6 h compound, anti-CD3 stimulation 20 min. An outline of the steps: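 Human PBMC starved overnight in 0.5% FBS, treated with compound 6 h at 37° C, then stimulated with anti-CD3 (10 ug/mL final) for 20 min. Lysates analysed for phospho-SLP76 by HTRF after overnight detection-antibody incubation at 25° C.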

In test [2] the test system is IL-2 production in primary mouse CD3+ T cells. Nature of the test: Cytokine measurement: IL-2 production in mouse CD3+ T cells (ELISA). Format: cell-based. The settings on record: T-cell, plate bound anti-CD3, 40 hrs; for fold induction at 1 µM: 1 uM compound, read-out: IL-2 production Fold change (1 uM); for fold induction at 3 µM: 3 uM compound, read-out: IL-2 production Fold change (3 uM). The procedure: Anti-CD3 Ab was used to provide signal 1 to stimulate mouse CD3+ T cells. Effect of compound stimulation on T cells was measure by IL2 ELISA. Briefly, anti-CD3 Ab was coated onto plates overnight. Isolated T cells from mouse splenocytes were incubated with plate bound CD3 in the presence and absence of compound for 40 hrs. After incubation, the supernatant was collected and IL2 level in the supernatant was determined by mouse IL2 ELISA kit.

Test [3] has as its target T2, HPK1 protein (Mus musculus, UniProt P70218).
T2 construct: the CD3+ T cell population was isolated from spleenocytes of mice; endogenous in cells; host or cells: primary mouse splenic CD3+ (pan) T cells
T2 sequence (P70218 1-827): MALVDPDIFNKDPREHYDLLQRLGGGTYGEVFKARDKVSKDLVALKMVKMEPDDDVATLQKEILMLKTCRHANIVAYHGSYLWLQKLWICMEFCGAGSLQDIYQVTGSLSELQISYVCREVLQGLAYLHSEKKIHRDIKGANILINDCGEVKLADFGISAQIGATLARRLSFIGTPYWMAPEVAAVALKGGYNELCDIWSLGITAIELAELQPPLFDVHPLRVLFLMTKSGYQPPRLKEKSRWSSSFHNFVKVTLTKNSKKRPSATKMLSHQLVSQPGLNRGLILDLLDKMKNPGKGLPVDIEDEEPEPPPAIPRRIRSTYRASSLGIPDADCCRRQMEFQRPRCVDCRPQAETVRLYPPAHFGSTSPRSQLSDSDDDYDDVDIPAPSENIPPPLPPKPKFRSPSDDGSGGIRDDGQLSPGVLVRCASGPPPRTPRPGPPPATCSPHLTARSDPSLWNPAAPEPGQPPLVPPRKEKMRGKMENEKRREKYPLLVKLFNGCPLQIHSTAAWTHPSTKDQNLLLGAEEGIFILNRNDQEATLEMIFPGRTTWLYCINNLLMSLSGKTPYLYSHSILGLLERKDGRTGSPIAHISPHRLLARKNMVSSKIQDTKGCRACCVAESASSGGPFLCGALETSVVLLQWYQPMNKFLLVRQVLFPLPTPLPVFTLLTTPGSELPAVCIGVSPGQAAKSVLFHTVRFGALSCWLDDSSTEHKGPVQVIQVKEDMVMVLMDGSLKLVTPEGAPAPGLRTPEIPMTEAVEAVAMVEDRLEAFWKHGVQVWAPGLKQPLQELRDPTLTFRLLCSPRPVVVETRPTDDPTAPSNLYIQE
Nature of the test: HPK1 protein degradation in mouse pan T cell (western blot). In kind it is cell-based. The settings on record: 18 h incubation. An outline of the steps:
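CD3+ pan T cells were isolated from mouse splenocytes and incubated 18 h with a range of compound concentrations. Lysates were normalised by BCA and run on SDS-PAGE. HPK1 was detected by western blot with an anti-human HPK1 polyclonal antibody, with β-actin as loading control.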

Test [4] addresses T3, HPK1 protein (Homo sapiens, UniProt Q92918).
T3 construct: Frozen human PBMC were purchased from Shanghai OribioTech; host or cells: human PBMC
As to the kind of experiment: HPK1 protein degradation in human PBMC (western blot). The settings on record: 18 h incubation. Format: cell-based. How it is done: HPK1 protein degradation in human PBMC: Frozen human PBMC were purchased from Shanghai OribioTech and recovered with culture medium (RMPI1640) prior to use. The cells were then incubated with a variety of concentrations of compound. After incubation for 18 h, the cells were collected and lysed. The protein concentration was determined by BCA protein assay kit from Thermo (23227). The HPK1 protein level was determined by western blots, using anti-human HPK1 polyclonal antibody from CST (4472S). Proteins were loaded into each well of the pre-casting gels and subjected to electrophoretic separation by SDS-PAGE. The protein resolved by SDS-PAGE were transferred to PVDF, blocked by 5% skim milk, and probed with anti-human HPK1 antibody or β-actin antibody from CST (3700S), using standard western blotting procedure.
T3 sequence (Q92918 whole entry): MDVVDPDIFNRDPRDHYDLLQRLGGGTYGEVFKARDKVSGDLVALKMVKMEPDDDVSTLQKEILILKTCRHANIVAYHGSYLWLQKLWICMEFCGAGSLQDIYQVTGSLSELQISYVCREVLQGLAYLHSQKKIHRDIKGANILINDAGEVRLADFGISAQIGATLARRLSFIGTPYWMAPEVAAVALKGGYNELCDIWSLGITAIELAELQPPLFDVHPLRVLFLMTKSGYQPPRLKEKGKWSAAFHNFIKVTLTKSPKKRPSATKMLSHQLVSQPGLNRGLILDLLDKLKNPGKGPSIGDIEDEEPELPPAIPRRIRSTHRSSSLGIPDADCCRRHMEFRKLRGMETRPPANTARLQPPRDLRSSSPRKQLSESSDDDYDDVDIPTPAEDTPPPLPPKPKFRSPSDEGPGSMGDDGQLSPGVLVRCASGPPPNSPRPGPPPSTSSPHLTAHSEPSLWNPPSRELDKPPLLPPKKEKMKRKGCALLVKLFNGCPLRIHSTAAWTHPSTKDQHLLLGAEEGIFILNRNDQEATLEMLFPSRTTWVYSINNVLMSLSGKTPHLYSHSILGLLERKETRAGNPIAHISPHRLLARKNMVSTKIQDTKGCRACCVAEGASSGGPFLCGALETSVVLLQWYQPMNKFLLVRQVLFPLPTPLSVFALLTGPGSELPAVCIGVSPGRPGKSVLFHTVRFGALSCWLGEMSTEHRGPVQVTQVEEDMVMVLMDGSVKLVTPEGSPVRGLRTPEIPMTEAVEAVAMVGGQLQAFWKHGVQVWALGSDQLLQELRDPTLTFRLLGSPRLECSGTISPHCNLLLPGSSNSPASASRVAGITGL

Some results are limits rather than exact numbers.

As to `O=C1CCC(c2ccc(C3CCN(CCCS(=O)(=O)N4CCN(c5cccc(-c6cnc7[nH]cc(C8CC8)c7c6Cl)c5)C(=O)C4)CC3)cc2)C(=O)N1` (stereo not drawn) [Example 102, 3-(4-(1-(3-((4-(3-(4-chloro-3-cyclopropyl-1H-pyrrolo[2,3-b]pyridin-5-yl)phenyl)-3-oxopiperazin-1-yl)sulfonyl)propyl)piperidin-4-yl)phenyl)piperidine-2,6-dione], the IC50 on HPK1 protein [1] is at most 10 nM. This compound also returned a half-inhibitory concentration (IC50) in the test on HPK1 p-SLP-76 of 300 to 3000 nM. In test [2], the fold induction at 1 µM stood at 2.9 and the fold induction at 3 µM stood at 2.6.
On to `O=C1CCC(N2C(=O)c3cc(F)c(N4CCN(CCCN5CCN(c6cccc(-c7cnc8[nH]cc(C9CC9)c8c7Cl)c6)C(=O)C5)CC4)cc3C2=O)C(=O)N1` (stereo not drawn) [Example 43], for which the figures for the half-maximal inhibitory concentration (IC50) against HPK1 protein [1] and in the test with HPK1 p-SLP-76 were 100 to 1000 nM and 300 to 3000 nM, respectively. In addition, the maximal degradation (Dmax) at HPK1 protein [3] was 95%; at HPK1 protein [4], 94%.
Turning to `CCc1c[nH]c2ncc(-c3cccc(N4CCN(S(=O)(=O)CCCN5CCN(c6ccc7c(c6)C(=O)N(C6CCC(=O)NC6=O)C7=O)CC5)CC4=O)c3)c(Cl)c12` (stereo not drawn) [Example 99, 5-(4-(3-((4-(3-(4-chloro-3-ethyl-1H-pyrrolo[2,3-b]pyridin-5-yl)phenyl)-3-oxopiperazin-1-yl)sulfonyl)propyl)piperazin-1-yl)-2-(2,6-dioxopiperidin-3-yl)isoindoline-1,3-dione], the IC50 on HPK1 protein [1] is 10 to 100 nM; in the test with HPK1 p-SLP-76, at most 300 nM. In addition, the maximal degradation (Dmax) came to 90% on HPK1 protein [3] and 99% at HPK1 protein [4].
On HPK1 protein [1], `O=C1CCC(N2C(=O)c3ccc(OCCC4CN(C(=O)N5CCN(c6cccc(-c7cnc8[nH]cc(C9CC9)c8c7Cl)c6)C(=O)C5)C4)cc3C2=O)C(=O)N1` (stereo not drawn) [Example 95, 5-(2-(1-(4-(3-(4-chloro-3-cyclopropyl-1H-pyrrolo[2,3-b]pyridin-5-yl)phenyl)-3-oxopiperazine-1-carbonyl)azetidin-3-yl)ethoxy)-2-(2,6-dioxopiperidin-3-yl)isoindoline-1,3-dione] displayed an IC50 of 10 to 100 nM. For the same compound, in test [2], the fold induction at 1 µM is 1.8 and the fold induction at 3 µM is 2.7.
As to `CCc1c[nH]c2ncc(-c3cccc(N4CCN(CCCOC5CCN(c6ccc7c(c6)C(=O)N(C6CCC(=O)NC6=O)C7=O)CC5)CC4=O)c3)c(Cl)c12` (stereo not drawn) [Example 35, 5-(4-(3-(4-(3-(4-chloro-3-ethyl-1H-pyrrolo[2,3-b]pyridin-5-yl)phenyl)-3-oxopiperazin-1-yl)propoxy)piperidin-1-yl)-2-(2,6-dioxopiperidin-3-yl)isoindoline-1,3-dione], the half-maximal inhibitory concentration (IC50) on HPK1 protein [1] fell in the range of 10 to 100 nM; in the test on HPK1 p-SLP-76, 300 to 3000 nM. Besides, the maximal degradation (Dmax) on HPK1 protein [3] came to 95%; at HPK1 protein [4], 90%.
On the same counts, the results for `CCc1c[nH]c2ncc(-c3cccc(N4CCN(CCCN5CCN(c6cc7c(cc6F)C(=O)N(C6CCC(=O)NC6=O)C7=O)CC5)CC4=O)c3)c(Cl)c12` (stereo not drawn) [Example 25] are 10 to 100 nM, 300 to 3000 nM, 96% and 96%.
On the same counts, the results for `O=C1CCC(N2Cc3cc(C4CCN(CCCN5CCN(c6cccc(-c7cnc8[nH]cc(C9CC9)c8c7Cl)c6)C(=O)C5)CC4)ccc3C2=O)C(=O)N1` (stereo not drawn) [Example 54, 3-(5-(1-(3-(4-(3-(4-chloro-3-cyclopropyl-1H-pyrrolo[2,3-b]pyridin-5-yl)phenyl)-3-oxopiperazin-1-yl)propyl)piperidin-4-yl)-1-oxoisoindolin-2-yl)piperidine-2,6-dione] are at most 10 nM, at most 300 nM, 95% and 83%.
In the case of `O=C1CCN(c2cccc3cc(N4CCN(CCCN5CCN(c6cccc(-c7cnc8[nH]cc(C9CC9)c8c7Cl)n6)C(=O)C5)CC4)ccc23)C(=O)N1` [Example 69, 1-(6-(4-(3-(4-(6-(4-chloro-3-cyclopropyl-1H-pyrrolo[2,3-b]pyridin-5-yl)pyridin-2-yl)-3-oxopiperazin-1-yl)propyl)piperazin-1-yl)naphthalen-1-yl)dihydropyrimidine-2,4 (1H,3H)-dione], the IC50 against HPK1 protein [1] is at most 10 nM; in the test on HPK1 p-SLP-76 it was 300 to 3000 nM. At HPK1 protein [4], this compound registered a Dmax of 74%.
As to `CCc1c[nH]c2ncc(-c3cccc(N4CCN(C(=O)COC5CCN(c6ccc7c(c6)C(=O)N(C6CCC(=O)NC6=O)C7=O)CC5)CC4=O)c3)c(Cl)c12` (stereo not drawn) [Example 16, 5-(4-(2-(4-(3-(4-chloro-3-ethyl-1H-pyrrolo[2,3-b]pyridin-5-yl)phenyl)-3-oxopiperazin-1-yl)-2-oxoethoxy)piperidin-1-yl)-2-(2,6-dioxopiperidin-3-yl)isoindoline-1,3-dione], the IC50 against HPK1 protein [1] was at most 10 nM; in the test on HPK1 p-SLP-76, at most 300 nM. Also, the maximal degradation (Dmax) at HPK1 protein [3] stood at 80%; on HPK1 protein [4], 96%.
For `O=C1CCC(N2Cc3cc(C4=CCN(CCCN5CCN(c6cccc(-c7cnc8[nH]cc(C9CC9)c8c7Cl)c6)C(=O)C5)CC4)ccc3C2=O)C(=O)N1` (stereo not drawn) [Example 56, 3-(5-(1-(3-(4-(3-(4-chloro-3-cyclopropyl-1H-pyrrolo[2,3-b]pyridin-5-yl)phenyl)-3-oxopiperazin-1-yl)propyl)-1,2,3,6-tetrahydropyridin-4-yl)-1-oxoisoindolin-2-yl)piperidine-2,6-dione], the 50% inhibitory concentration (IC50) at HPK1 protein [1] is at most 10 nM; in the test on HPK1 p-SLP-76, 300 to 3000 nM. The Dmax was 95% on HPK1 protein [3] and 98% on HPK1 protein [4].
Regarding `CCc1c[nH]c2ncc(-c3cccc(N4CCN(CCN5CCN(c6ccc7c(c6)C(=O)N(C6CCC(=O)NC6=O)C7=O)CC5)CC4=O)c3)c(Cl)c12` (stereo not drawn) [Example 28, 5-(4-(2-(4-(3-(4-chloro-3-ethyl-1H-pyrrolo[2,3-b]pyridin-5-yl)phenyl)-3-oxopiperazin-1-yl)ethyl)piperazin-1-yl)-2-(2,6-dioxopiperidin-3-yl)isoindoline-1,3-dione], the results for the half-inhibitory concentration (IC50) against HPK1 protein [1] and with HPK1 p-SLP-76 were 10 to 100 nM and 300 to 3000 nM, respectively. In addition, the Dmax at HPK1 protein [4] is 80%.
On to `O=C1CCC(Nc2ccc(C3CCN(CCCN4CCN(c5cccc(-c6cnc7[nH]cc(C8CC8)c7c6Cl)c5)C(=O)C4)CC3)cc2)C(=O)N1` (stereo not drawn) [Example 78, 3-((4-(1-(3-(4-(3-(4-chloro-3-cyclopropyl-1H-pyrrolo[2,3-b]pyridin-5-yl)phenyl)-3-oxopiperazin-1-yl)propyl)piperidin-4-yl)phenyl)amino)piperidine-2,6-dione], for which the figures for the IC50 on HPK1 protein [1] and in the test on HPK1 p-SLP-76 were at most 10 nM and 300 to 3000 nM, respectively. Moreover, the greatest degradation seen (Dmax) at HPK1 protein [3] came out at 88%; on HPK1 protein [4], 90%.

The values above are taken from patent US20240368159A1, “HPK1 DEGRADERS, COMPOSITIONS COMPRISING THE HPK1 DEGRADER, AND METHODS OF USING THE SAME” (BIOFRONT LTD, priority 2021, published 2024).
